Laboratory results as given in paper PMC8615521, “Mitochondria-Mediated Apoptosis of HCC Cells Triggered by Knockdown of Glutamate Dehydrogenase 1: Perspective for Its Inhibition through Quercetin and Permethylated Anigopreissin A” (Biomedicines, 2021).

Experiments:
[1] = biological target: T1, GDH1 from bovine liver (glutamate dehydrogenase 1) (Bos taurus, UniProt P00366); test: spectrophotometric NADH oxidation assay ([…] nm), Lineweaver-Burk and secondary plots; assay type: biochemical
T1 construct: gene GLUD1; purified bovine liver GDH (Sigma Aldrich, Type II)

[2] = biological target: T1, GDH1 from bovine liver (glutamate dehydrogenase 1); test: spectrophotometric NADH oxidation assay ([…] nm), reference inhibitor measured by the authors; assay type: biochemical
[3] = biological target: T2, hGDH1 (human glutamate dehydrogenase 1) (Homo sapiens, UniProt P00367); test: GDH activity in HepG2 cell extract (NADH, […] nm); assay type: cell-based; conditions: HepG2, read-out: % inhibition at 8 μM %
T2 construct: gene GLUD1; GDH activity in HepG2 cellular extract
T2 sequence (P00367 54-558): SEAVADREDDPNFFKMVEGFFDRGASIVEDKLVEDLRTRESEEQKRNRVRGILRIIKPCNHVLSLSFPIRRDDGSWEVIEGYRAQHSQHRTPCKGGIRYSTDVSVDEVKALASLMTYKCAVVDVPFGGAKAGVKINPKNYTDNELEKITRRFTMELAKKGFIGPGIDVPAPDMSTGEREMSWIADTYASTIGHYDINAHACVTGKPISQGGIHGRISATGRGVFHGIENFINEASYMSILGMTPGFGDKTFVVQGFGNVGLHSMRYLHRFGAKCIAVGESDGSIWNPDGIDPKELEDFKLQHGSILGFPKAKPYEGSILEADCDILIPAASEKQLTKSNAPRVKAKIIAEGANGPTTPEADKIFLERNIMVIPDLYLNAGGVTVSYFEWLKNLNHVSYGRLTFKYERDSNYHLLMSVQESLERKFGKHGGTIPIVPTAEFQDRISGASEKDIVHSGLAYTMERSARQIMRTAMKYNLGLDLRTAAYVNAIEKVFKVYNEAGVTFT

T1 sequence (P00366 58-558): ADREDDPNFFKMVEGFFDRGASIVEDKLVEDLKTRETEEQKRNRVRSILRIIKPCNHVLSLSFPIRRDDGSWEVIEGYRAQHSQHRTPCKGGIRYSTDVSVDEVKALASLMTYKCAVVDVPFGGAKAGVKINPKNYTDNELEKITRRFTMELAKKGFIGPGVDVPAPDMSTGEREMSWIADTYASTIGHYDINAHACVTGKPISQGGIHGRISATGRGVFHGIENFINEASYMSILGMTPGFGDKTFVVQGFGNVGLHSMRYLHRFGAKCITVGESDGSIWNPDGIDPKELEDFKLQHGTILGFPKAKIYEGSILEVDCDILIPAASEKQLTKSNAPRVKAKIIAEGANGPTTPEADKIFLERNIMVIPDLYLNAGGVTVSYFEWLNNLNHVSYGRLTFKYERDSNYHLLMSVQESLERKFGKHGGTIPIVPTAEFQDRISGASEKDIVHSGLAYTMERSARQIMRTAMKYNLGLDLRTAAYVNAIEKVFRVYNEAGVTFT

Molecule | Ki [1] [µM] | IC50 [2] [µM] | inhibition at 8 µM [3] [%]
Permethylated Anigopreissin A [PAA] | 10 | – | –
O=C(O[C@@H]1Cc2c(O)cc(O)cc2O[C@@H]1c1cc(O)c(O)c(O)c1)c1cc(O)c(O)c(O)c1 [EGCG, Epigallocatechin gallate] | – | ~2 | –
O=c1c(O)c(-c2ccc(O)c(O)c2)oc2cc(O)cc(O)c12 [quercetin] | 9.2 | – | ~56
